# Results taken from patent EP1357114A1, “Substituted pyrimidin-2,4(1H,3H)-diones as inhibitors of Matrix Metalloproteinases (MMP)” (IBFB GmbH Privates Institut für biomedizinische Forschung …, priority 2002, dated 2003).
# Columns and labels:
# MMP-9 = target: T1, MMP-9 (Homo sapiens, UniProt P14780); experiment: Quantitative fluorescence assay for matrix metalloproteinases (cleavage of Mca-Pro-Leu-Gly-Leu-Dpa-Ala-Arg-NH2); format: biochemical
# T1 construct: Das latente Enzym wird durch 30 - 60 min; Inkubation bei 37°C mit 1/100 Vol. Trypsin (10 mg/ml) aktiviert; from tissue; host or cells: human buffy coat (blood leukocytes)
# Procedure: Native MMP-9 wurde reproduzierbar und in guter Ausbeute und Reinheit aus humanem Buffy Coat gewonnen. Hierzu wird Buffy Coat mit 10% (v/v) Triton X-100 auf eine Endkonzentration von 0,4% gebracht, 30 min. auf Eis geschüttelt und dann 1 Vol. 2-fach Bindungspuffer (40 mM Tris-HCI pH 7,5, 10 mM CaCl2, 1 M NaCI, 0,2% (v/v) Triton X-100) hinzugefügt und weitere 30 min. auf Eis geschüttelt. Die Lösung wird 15 min. bei 16 000 Upm an einem SS-34 Rotor bei 4°C abzentrifugiert und über Glaswolle filtriert. Das Filtrat wird mit Gelatine-Agarose, welche mit Bindungspuffer äquilibriert wurde, gebatcht und 1 Std. auf Eis geschüttelt. Die beladene Gelatine-Agarose wird in eine Säule überführt und mit mindestens 10 Vol. Bindungspuffer proteinfrei gespült. Die Elution der gebundenen MMP-9 erfolgt mit 2 Gelvolumen Bindungspuffer plus 5% (v/v) DMSO. Das Eluat kann zum Puffer-Austausch und gleichzeitiger Abtrennung geringer Verunreinigungen an MMP-2 über eine Gelfiltration an Sephadex G-75 aufgetrennt werden. Hierzu wird der Puffer I (20 mM Tris-HCI pH 7,5, 5 mM CaCl2, 100 mM NaCI, 0,1% (v/v) Triton X-100) verwendet. Das so gewonnene Eluat enthällt MMP-9 in den drei bekannten Zustandsformen: Monomer, Homodimer, Heterodimer. Die Reinheit des Enzyms beträgt ca. 90%, wobei die restlichen Fremdproteine Fibronektin und äußerst geringe Mengen an TIMP's sind. Das latente Enzym wird durch 30 - 60 min. Inkubation bei 37°C mit 1/100 Vol. Trypsin (10 mg/ml) aktiviert. Trypsin wird durch Zugabe von 1 mM PMSF oder mit einem spezifischen Inhibitor (TKI) gehemmt.
# (§1) Durch enzymatische Spaltung des synthetischen Substrates Mca-Pro-Leu-Gly-Leu-Dpa-Ala-Arg-NH2 durch die jeweilige Kollagenase, wird die fluoreszente Gruppe Mca ((7-Methoxycoumarin-4-yl)acetyl) vom internen Quencher Dpa ((N-3-(2,4-dinitrophenyl)-L-2,3-diaminopropienyl) getrennt. Dabei erfolgt eine starke Zunahme der Fluoreszenz im Messansatz, die am Fluorimeter quantifiziert werden kann (λex 328 nm, λem 393 nm) und innerhalb der ersten Minuten linear verläuft. Eine gewisse Spezifität des Tests für Matrix-Metalloproteinasen ergibt sich einerseits aus der Aminosäuresequenz -Pro-Leu-Gly-Leu- im Substrat und andererseits durch die gewählten Inkubationsbedingungen. Matrix-Metalloproteinasen spalten das Substrat an der Bindung Gly-Leu. Gemessen wird die proteolytische Restaktivität vorinkubierter Ansätze von Enzym und Inhibitor, wobei die Substrat- und Enzymkonzentration konstant gehalten und die Inhibitorkonzentration variiert wurde. Es wurden für jeden getesteten Inhibitor drei Messreihen mit unterschiedlicher Substratkonzentration aufgenommen. Aus der zeitabhängigen Fluoreszenzzunahme wird die Enzymaktivität in Fluoreszenzeinheiten pro min berechnet. Die Bestimmung der Ki-Werte erfolgte graphisch nach der Methode von DIXON (1953) durch Auftragung der reziproken Reaktionsgeschwindigkeit 1/v (y-Achse) gegen Inhibitorkonzentration (x-Achse).
# (§2) 1984 µl Messpuffer (100mM Tris-HCI pH 7,5, 100 mM NaCI, 10 mM CaCl2, 0,05% Brij 35 bzw. 50 mM MES-NaOH, pH 6.0, 10 mM CaCl2, 100 mM NaCI, 0.05% Brij 35 im Fall der KaDo MMP-3) 2 µl Inhibitor, gelöst in DMSO, bzw. DMSO allein (nichtinhibierender Ansatz) 4 µl Enzym • 5 min. Vorinkubation des Enzym-Inhibitor-Gemischs bei Raumtemperatur unter Rühren • Start der Reaktion mit 10 µl Substrat gelöst in DMSO • Aufzeichnung der zeitabhängigen Fluoreszenzzunahme über 2 - 10 min.
# MMP-2 = target: T2, MMP-2 (Homo sapiens, UniProt P08253); experiment: as above; format: biochemical
# T2 construct: endogenous in cells; host or cells: cultured human dermal fibroblasts (secreted into conditioned medium)
# T2 sequence (P08253 110-660): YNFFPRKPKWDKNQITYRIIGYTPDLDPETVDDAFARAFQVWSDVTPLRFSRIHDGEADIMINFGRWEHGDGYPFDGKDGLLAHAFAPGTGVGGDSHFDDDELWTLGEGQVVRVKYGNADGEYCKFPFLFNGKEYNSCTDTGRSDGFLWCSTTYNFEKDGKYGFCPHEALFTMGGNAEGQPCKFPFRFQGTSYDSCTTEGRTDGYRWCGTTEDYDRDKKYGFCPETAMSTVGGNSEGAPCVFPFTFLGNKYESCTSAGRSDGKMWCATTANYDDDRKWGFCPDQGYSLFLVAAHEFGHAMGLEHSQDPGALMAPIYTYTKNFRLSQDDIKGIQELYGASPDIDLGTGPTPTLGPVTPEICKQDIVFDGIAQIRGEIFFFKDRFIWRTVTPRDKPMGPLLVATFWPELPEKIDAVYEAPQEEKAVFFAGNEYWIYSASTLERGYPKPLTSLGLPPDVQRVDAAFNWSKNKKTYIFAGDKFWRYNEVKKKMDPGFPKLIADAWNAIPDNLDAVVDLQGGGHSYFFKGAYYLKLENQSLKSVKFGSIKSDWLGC
# Procedure: MMP-2 (Gelatinase) wird von kultivierten dermalen Fibroblasten in beträchtlichen Mengen in das Kulturmedium abgegeben und ist daher leicht zugänglich. Die sezernierte und inaktive Proform des Enzyms wird durch Behandlung mit organischen Quecksilberverbindungen in die enzymatisch aktive Form überführt.
# Hierzu werden humane dermale Fibroblasten nach etablierten Standardmethoden gewonnen und kultiviert. Aus dem konditionierten Zellmedium wird humane MMP-2 durch folgende Methode gewonnen: 500 ml Zellmedium werden 30 min. bei 10 000 g zentrifugiert und der Überstand mit einem Vol. 2-fach Bindungspuffer (40 mM Tris-HCI pH 7,5 , 10 mM CaCl2, 1 M NaCI, 0,2% (v/v) Triton X-100) versetzt. Dazu gibt man 6 ml Gelatine-Agarose, welche mit Bindungspuffer äquilibriert wurde, und schüttelt für 1 Std. auf Eis. Die beladene Gelatine-Agarose wird in eine Säule überführt und mit mindestens 10 Vol. Bindungspuffer proteinfrei gespült. Die Elution der gebundenen MMP-2 erfolgt mit 2 Gelvolumen Bindungspuffer plus 5% (v/v) DMSO. Das Eluat enthält die humane MMP-2 als inaktives Zymogen in stark angereicherter Form. Fremdproteine sind TIMP-2 und Fibronektin; das letztere kann durch eine Gelfiltration an Sephacryl S-200 abgetrennt werden. Laufpuffer ist 100 mM Tris-HCI pH 7,5, 10 mM CaCl2, 100 mM NaCI, 0,05% (v/v) Brij 35. Die inaktive humane MMP-2 wird durch zweistündige Inkubation bei 37 °C in Gegenwart von 1 mM p-Aminophenylmercuric Acetate (APMA) aktiviert. Zur Beseitigung von APMA nach Aktivierung wird die Probe an Sephadex G-25 in Laufpuffer (s.o.) filtriert.
# as §1, §2
# T1 sequence (P14780 107-707 limits assumed): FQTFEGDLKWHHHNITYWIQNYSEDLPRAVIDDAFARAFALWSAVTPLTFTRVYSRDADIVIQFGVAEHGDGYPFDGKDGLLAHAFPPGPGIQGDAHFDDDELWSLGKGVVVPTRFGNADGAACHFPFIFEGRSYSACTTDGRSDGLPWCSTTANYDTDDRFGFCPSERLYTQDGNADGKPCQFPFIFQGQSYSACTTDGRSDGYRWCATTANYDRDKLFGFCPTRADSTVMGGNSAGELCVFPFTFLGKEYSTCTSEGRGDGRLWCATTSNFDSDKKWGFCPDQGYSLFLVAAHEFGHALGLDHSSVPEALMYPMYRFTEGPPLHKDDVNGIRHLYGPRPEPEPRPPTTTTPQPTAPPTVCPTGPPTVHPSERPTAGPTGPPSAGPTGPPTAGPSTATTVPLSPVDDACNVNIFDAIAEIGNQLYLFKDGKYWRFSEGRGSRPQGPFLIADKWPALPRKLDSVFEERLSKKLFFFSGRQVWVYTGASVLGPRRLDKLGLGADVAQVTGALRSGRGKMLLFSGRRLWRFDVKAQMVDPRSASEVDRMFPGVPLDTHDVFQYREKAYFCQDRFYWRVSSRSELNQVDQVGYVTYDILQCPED
Compound,MMP-9 Hemmung (MMP-9; bei 10 µM),MMP-2 Hemmung (MMP-2; bei 10 µM),further results
"O=c1[nH]c2ccccc2c(=O)n1CC(S)CS (racemic) [Beispiel 1, (R,S)-3-(2,3-Dimercaptopropyl)chinazolin-2,4-(1H,3H)dion]",70% Hemmung bei 10 µM,70% Hemmung bei 10 µM,
"O=c1[nH]c2cc(Cl)ccc2c(=O)n1CC(S)CS (racemic) [Beispiel 3, (R,S)-7-Chlor-3-(2,3-dimercaptopropyl)chinazolin-2,4-(1H,3H)dion]",83% Hemmung bei 10 µM,90% Hemmung bei 10 µM,
"O=c1[nH]c2ccc(Cl)cc2c(=O)n1CC(S)CS (racemic) [Beispiel 4, (R,S)-6-Chlor-3-(2,3-dimercaptopropyl)chinazolin-2,4-(1H,3H)dion]",50% Hemmung bei 10 µM,50% Hemmung bei 10 µM,
"Cc1cccc2[nH]c(=O)n(CC(S)CS)c(=O)c12 (racemic) [Beispiel 5, (R,S)-3-(2,3-Dimercaptopropyl)-5-methyl-chinazolin-2,4-(1H,3H)dion]",70% Hemmung bei 10 µM,50% Hemmung bei 10 µM,
"COc1cc2[nH]c(=O)n(CC(S)CS)c(=O)c2cc1OC (racemic) [Beispiel 7, (R,S)-3-(2,3-Dimercaptopropyl)-6,7-dimethoxy-chinazolin-2,4-(1H,3H)dion]",,,MMP-9 Hemmung (MMP-9; bei 1 µM): 20% Hemmung bei 1 µM; MMP-2 Hemmung (MMP-2; bei 1 µM): 20% Hemmung bei 1 µM
"O=C(NCc1ccccc1)c1ccc2c(=O)n(CC(S)CS)c(=O)[nH]c2c1 (racemic) [Beispiel 8, (R,S)-N-Benzyl-3-(2,3-dimercaptopropyl)-2,4-dioxo-1,2,3,4-tetrahydrochinazolin-7-carboxamide]",,,MMP-9 Hemmung (MMP-9; bei 5 µM): 30% Hemmung bei 5 µM; MMP-2 Hemmung (MMP-2; bei 5 µM): 50% Hemmung bei 5µM
"O=c1[nH]c2ccsc2c(=O)n1CC(S)CS (racemic) [Beispiel 9, (R,S)-3-(2,3-Dimercaptopropyl)thieno[3,2-d]pyrimidin-2,4(1H,3H)-dion]",,,"MMP-9 Hemmung (MMP-9; bei 2,5 µM): 50% Hemmung bei 2,5 µM; MMP-2 Hemmung (MMP-2; bei 3 µM): 50% Hemmung bei 3 µM"
"O=c1[nH]c2sc3c(c2c(=O)n1CC(S)CS)CCCC3 (racemic) [Beispiel 10, (R,S)-3-(2,3-Dimercaptopropyl)-5,6,7,8-tetrahydro[1]benzothieno[2,3-d]pyrimidin-2,4(1H,3H)-dion]",68% Hemmung bei 10 µM,52% Hemmung bei 10 µM,
"O=c1[nH]c2sc(-c3ccccc3)cc2c(=O)n1CC(S)CS (racemic) [Beispiel 11, (R,S)-3-(2,3-Dimercaptopropyl)-6-phenylthieno[2,3-d]pyrimidin-2,4(1H,3H)-dion]",,,MMP-9 Hemmung (MMP-9; bei 1 µM): 15% Hemmung bei 1 µM; MMP-2 Hemmung (MMP-2; bei 1 µM): 15% Hemmung bei 1 µM
